Data reported in patent US10168342B2, “Lipid probes and uses thereof” (THE SCRIPPS RESEARCH INSTITUTE, priority 2015, dated 2019).
Like-named read-outs stand apart in the source and are kept apart here.

Columns and labels:
[1] = biological target: AEA-DA lipid probe targets in Neuro2a cells (Mus musculus, UniProt Q9R1P3)
[2] = biological target: AEA-DA lipid probe targets in Neuro2a cells (Mus musculus, UniProt Q9ET22)
[3] = biological target: T1, AEA-DA lipid probe targets in Neuro2a cells (Mus musculus, UniProt P37040)
T1 sequence (P37040 1-678): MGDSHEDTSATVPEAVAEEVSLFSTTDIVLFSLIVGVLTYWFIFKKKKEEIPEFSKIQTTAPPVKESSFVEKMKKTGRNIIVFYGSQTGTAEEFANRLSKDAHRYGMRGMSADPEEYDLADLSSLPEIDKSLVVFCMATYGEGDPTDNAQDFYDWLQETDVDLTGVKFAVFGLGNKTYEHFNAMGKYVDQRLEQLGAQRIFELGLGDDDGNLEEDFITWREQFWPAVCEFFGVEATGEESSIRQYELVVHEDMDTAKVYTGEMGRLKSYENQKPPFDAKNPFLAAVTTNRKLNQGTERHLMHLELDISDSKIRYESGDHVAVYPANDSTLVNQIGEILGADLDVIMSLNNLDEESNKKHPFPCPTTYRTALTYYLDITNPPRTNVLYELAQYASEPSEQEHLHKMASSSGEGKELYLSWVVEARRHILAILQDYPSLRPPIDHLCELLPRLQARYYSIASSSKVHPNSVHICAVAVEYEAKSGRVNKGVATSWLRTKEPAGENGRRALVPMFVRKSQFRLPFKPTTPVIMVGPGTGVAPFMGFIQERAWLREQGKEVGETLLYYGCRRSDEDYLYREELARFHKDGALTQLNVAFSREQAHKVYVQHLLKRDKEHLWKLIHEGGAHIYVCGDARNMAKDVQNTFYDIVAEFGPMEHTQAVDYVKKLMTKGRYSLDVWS

[4] = biological target: T2, AEA-DA lipid probe targets in Neuro2a cells (Mus musculus, UniProt P46638)
T2 sequence (P46638 1-218): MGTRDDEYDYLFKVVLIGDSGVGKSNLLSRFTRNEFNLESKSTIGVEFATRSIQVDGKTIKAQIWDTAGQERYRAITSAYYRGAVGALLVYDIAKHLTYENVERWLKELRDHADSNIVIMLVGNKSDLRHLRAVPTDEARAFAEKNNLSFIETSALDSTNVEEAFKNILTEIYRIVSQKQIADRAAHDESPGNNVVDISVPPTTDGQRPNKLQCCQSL

[5] = biological target: T3, AEA-DA lipid probe targets in Neuro2a cells (Mus musculus, UniProt Q61595)
T3 sequence (Q61595 1-1327): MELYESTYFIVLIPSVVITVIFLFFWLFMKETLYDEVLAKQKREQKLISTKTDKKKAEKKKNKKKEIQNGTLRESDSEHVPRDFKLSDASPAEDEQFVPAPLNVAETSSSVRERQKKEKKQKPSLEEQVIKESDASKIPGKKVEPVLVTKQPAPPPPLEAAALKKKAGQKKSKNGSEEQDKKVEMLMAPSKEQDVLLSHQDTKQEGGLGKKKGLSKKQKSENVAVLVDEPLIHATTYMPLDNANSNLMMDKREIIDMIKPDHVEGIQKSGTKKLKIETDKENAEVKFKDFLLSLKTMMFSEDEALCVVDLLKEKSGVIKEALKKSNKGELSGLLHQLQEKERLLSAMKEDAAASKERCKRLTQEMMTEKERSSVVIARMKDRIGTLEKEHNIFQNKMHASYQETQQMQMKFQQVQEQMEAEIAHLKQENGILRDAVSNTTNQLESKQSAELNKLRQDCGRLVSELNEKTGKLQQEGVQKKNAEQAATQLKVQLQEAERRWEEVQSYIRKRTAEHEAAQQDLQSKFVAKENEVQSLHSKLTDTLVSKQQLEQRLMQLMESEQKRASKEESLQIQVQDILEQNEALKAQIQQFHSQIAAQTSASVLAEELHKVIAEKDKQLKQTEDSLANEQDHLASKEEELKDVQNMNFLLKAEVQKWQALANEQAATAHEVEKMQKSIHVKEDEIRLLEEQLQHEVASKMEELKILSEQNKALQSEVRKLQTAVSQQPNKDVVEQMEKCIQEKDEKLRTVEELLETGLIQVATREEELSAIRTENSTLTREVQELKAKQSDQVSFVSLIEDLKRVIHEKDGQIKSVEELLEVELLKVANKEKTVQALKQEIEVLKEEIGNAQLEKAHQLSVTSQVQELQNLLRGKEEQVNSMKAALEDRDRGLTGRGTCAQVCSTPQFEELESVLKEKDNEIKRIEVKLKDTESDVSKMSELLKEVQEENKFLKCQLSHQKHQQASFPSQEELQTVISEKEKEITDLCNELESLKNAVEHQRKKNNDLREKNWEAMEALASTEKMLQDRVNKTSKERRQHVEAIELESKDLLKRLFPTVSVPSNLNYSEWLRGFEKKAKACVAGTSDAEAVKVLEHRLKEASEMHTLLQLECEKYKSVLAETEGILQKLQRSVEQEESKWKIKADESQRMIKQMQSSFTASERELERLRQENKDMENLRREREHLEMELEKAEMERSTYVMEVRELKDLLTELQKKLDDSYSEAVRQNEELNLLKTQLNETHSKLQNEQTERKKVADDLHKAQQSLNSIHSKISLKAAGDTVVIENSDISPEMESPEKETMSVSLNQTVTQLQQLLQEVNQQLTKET

[6] = biological target: T4, AEA-DA lipid probe targets in Neuro2a cells (Mus musculus, UniProt Q924D0); settings: protein Rtn4ip1, Neuro2a cells
T4 sequence (Q924D0 41-396): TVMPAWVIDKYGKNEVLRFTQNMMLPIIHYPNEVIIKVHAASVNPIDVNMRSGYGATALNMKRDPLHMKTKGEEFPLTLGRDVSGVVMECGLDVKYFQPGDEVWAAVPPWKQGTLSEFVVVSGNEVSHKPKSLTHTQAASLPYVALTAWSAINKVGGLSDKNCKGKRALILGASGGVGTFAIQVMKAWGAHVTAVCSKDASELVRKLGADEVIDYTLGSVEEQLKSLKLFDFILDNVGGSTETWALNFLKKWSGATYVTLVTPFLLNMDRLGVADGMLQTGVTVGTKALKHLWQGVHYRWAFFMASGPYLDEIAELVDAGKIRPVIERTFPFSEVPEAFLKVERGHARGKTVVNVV

Sequence of AEA-DA lipid probe targets in Neuro2a cells (Mus musculus, UniProt Q9R1P3) (Q9R1P3 whole entry): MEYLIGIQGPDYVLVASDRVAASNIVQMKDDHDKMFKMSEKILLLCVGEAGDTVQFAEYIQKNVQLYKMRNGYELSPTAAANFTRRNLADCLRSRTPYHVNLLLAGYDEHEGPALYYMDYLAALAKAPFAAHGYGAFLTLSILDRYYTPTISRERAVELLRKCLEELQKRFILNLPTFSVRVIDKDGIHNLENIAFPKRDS
Sequence of AEA-DA lipid probe targets in Neuro2a cells (Mus musculus, UniProt Q9ET22) (Q9ET22 37-506): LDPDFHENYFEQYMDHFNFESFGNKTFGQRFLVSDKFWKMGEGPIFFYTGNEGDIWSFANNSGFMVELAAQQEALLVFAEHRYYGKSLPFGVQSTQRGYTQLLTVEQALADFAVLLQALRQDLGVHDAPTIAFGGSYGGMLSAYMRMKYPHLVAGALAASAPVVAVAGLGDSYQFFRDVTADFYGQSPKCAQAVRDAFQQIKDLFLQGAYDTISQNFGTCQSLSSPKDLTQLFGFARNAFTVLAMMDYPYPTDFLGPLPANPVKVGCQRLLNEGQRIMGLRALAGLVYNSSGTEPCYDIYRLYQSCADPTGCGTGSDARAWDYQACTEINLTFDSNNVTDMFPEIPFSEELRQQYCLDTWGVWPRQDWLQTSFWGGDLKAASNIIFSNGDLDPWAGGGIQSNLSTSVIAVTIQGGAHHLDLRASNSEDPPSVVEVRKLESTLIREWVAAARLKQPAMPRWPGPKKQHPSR

Compound | SILAC ratio Psmb2 ([1]; competitor 25 μM) | SILAC ratio Dpp7 ([2]; competitor 25 μM) | SILAC ratio, Por ([3]; competitor 25 μM) | SILAC ratio, Rab11b ([4]; competitor 25 μM) | SILAC ratio, Ktn1 ([5]; competitor 25 μM) | SILAC ratio (AEA-DA competition) ([6]; competitor 25 μM) | further results
O=C(/C=C/c1cccnc1)NCCCCC1CCN(C(=O)c2ccccc2)CC1 [FK-866, reference compound] | 1.7 | 1.0 | 1.2 | 1.2 | 1.2 |  | 
CCCCC/C=C\C/C=C\C/C=C\C/C=C\CCCC(=O)NCCO [AEA, anandamide, reference compound] |  |  |  |  |  |  | SILAC ratio Psmb2 ([1]; competitor 200 μM): 1.3; SILAC ratio Dpp7 ([2]; competitor 200 μM): 1.4; SILAC ratio, Por ([3]; competitor 200 μM): 2.0; SILAC ratio, Rab11b ([4]; competitor 200 μM): 1.6; SILAC ratio, Ktn1 ([5]; competitor 200 μM): 1.4; SILAC ratio (AEA-DA competition) ([6]; competitor 200 μM): 1.0
CN1CCN(C(=O)c2c(-c3ccccc3)c3cc([N+](=O)[O-])ccc3n2C)CC1 [KML110, (1-Methyl-5-nitro-3-phenyl-1H-indol-2-yl)(4-methylpiperazin-1-yl)methanone] | 1.7 | 1.5 | 1.6 | 1.5 |  |  | 
C=CCN(C)CCCCCCOc1ccc(C(=O)c2ccc(Br)cc2)c(F)c1 [Ro 48-8071, reference compound] | 1.0 | 0.3 | 1.5 | 1.3 | 0.8 | 0.7 | 
CN1CCN(C(=O)c2[nH]c3ccc([N+](=O)[O-])cc3c2-c2ccccc2)CC1 [MJN228, (4-Methylpiperazin-1-yl)(5-nitro-3-phenyl-1H-indol-2-yl)methanone] | 1.4 | 0.7 | 1.8 | 1.6 | 1.4 | 1.4 | SILAC ratio Psmb2 ([1]; competitor 10 μM): 1.3; SILAC ratio Psmb2 ([1]; competitor 50 μM): 1.2; SILAC ratio Psmb2 ([1]; competitor 100 μM): 2.2; SILAC ratio Dpp7 ([2]; competitor 10 μM): 1.0; SILAC ratio Dpp7 ([2]; competitor 50 μM): 1.0; SILAC ratio Dpp7 ([2]; competitor 100 μM): 0.7; SILAC ratio, Por ([3]; competitor 10 μM): 1.4; SILAC ratio, Por ([3]; competitor 50 μM): 2.0; SILAC ratio, Por ([3]; competitor 100 μM): 3.1; SILAC ratio, Rab11b ([4]; competitor 10 μM): 1.2; SILAC ratio, Rab11b ([4]; competitor 50 μM): 1.8; SILAC ratio, Rab11b ([4]; competitor 100 μM): 2.4; SILAC ratio, Ktn1 ([5]; competitor 10 μM): 1.0; SILAC ratio, Ktn1 ([5]; competitor 100 μM): 1.2; SILAC ratio (AEA-DA competition) ([6]; competitor 10 μM): 1.0
